Where a SMILES comes first, the peptide text is derived from it. Bridges are numbered along the chain shown (N, C = ends). [ ]: non-standard residue; d: D form. S5 = C=CCCC[C@](C)(N)C(=O)O; Ahx = NCCCCCC(=O)O
Assays:
β-catenin [1] = biological target: T1, β-catenin (Homo sapiens, UniProt P35222); test: β-catenin immunoblotting / immunoprecipitation in HEK293T cells
T1 sequence (P35222 1-781): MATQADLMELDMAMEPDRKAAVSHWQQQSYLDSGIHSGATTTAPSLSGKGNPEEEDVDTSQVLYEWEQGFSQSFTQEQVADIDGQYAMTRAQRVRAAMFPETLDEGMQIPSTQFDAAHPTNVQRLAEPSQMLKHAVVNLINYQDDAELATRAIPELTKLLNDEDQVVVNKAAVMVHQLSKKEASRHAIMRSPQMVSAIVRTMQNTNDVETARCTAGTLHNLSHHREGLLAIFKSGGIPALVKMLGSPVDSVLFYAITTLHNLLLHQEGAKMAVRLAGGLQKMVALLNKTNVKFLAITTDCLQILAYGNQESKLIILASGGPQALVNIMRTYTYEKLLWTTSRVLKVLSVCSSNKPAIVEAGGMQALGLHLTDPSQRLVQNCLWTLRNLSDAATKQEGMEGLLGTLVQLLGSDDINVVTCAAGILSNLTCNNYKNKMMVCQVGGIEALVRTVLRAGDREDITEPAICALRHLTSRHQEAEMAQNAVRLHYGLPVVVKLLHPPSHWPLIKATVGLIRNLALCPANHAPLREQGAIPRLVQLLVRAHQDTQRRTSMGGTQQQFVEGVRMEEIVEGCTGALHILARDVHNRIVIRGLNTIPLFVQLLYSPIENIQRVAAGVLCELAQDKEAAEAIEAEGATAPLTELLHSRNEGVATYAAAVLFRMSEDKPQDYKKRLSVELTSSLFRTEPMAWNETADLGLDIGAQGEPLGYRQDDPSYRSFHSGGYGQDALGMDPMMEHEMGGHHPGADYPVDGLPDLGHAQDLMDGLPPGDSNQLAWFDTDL
Procedure: The relative band intensity was quantified with ImageJ and normalized to GAPDH.
For immunoprecipitation, the cells were lysed in TNE lysis buffer (50 mM Tris-HCl, pH 8.0, 150 mM NaCl, 1% Nonidet P-40, and protease inhibitor cocktail). […] After 18,000×g centrifugation for 10 min, the lysates were immunoprecipitated with specific antibody and protein A-Sepharose beads and then washed the beads with TNE buffer for three times before immunoblotting.

HCT116 cells = test: Cell proliferation assay (CCK-8), HCT116 cells; format: cell-based; conditions: 50 μM peptides, 6 days, cell number counted each day
Procedure: (§1) Equal number of cells (8000–10,000 cells) were seeded in the 24-well plates and then subjected to different treatments. The cell numbers were counted every 24 h with the CCK-8 cell counting kit (Dojindo Molecular Technologies) according to manufacturer’s instructions.

APC^−/− organoids = test: APC^−/− mouse intestinal organoid culture; format: cell-based
SW480 cells = test: Cell permeability of FITC-labeled peptides in SW480 cells (confocal microscopy); format: cell-based
Procedure: After elongation of the peptide and metathesis reaction were conducted on the resin according to a general protocol. Then, the Fmoc group was removed and the resin was treated with Fmoc-Ahx-OH (4 eq.), DIC (4 eq.), Oxyma pure (4 eq.) and NMP (6 mL) for 15 min at 60 °C. The Fmoc group was removed and the resin was treated with fluorescein isothiocyanate (FITC, 2 eq.) and DIPEA (2 eq.) in DMF (6 mL) at room temperature overnight. The biotinylated labeling was carried out as routine amino acid. Cleavage was conducted following a general protocol and crude peptide was purified by RP- HPLC to give the final products.
Supplementary Fig. S3. Cell permeability of FITC-labeled peptides in SW480 […]
(a) The uptake of FITC-labeled peptides into SW480 was examined after incubation for 6 h by confocal microscopy. The nuclei were counter-stained with DAPI. Scale bar = 100 μm. (b) FITC-xStAx and FITC-xStAx-VHLL were added to SW480 cells for 6 h, and then washed out with the growth medium. After 24 h and 48 h, the cells were counter-stained with DAPI and examined by confocal microscopy. Scale bar = 100 […]
(1 picture or pasted object on this page, not shown here)

intestinal tumors = test: Intestinal tumors in APC^min/+ mice
Procedure: Because APC^min/+ mice can develop intestinal tumors around 10 weeks-old[26], the 11 weeks-old APC^min/+ mice were intraperitoneally injected with 30 mg/kg vehicle DMSO or peptides at every other day for 14 days. Then the mice were sacrificed for analysis of intestinal tumors.
Tumor number of the whole intestinal tract was analyzed in the lower panel.

β-catenin [2] = test: β-catenin immunoblotting in colorectal cancer cells (HCT116, SW480, LoVo); format: cell-based; conditions: for β-catenin protein level, MSAB versus xStAx-VHLL: 50 μM xStAx-VHLL
Procedure: Relative
β-catenin protein level was quantified with ImageJ and normalized to GAPDH. Data […]
(b) LoVo cells were treated with 50 μM xStAx (xS), 50 μM
immunoblotting. (c, d) LoVo (c) and SW480 (d) cells were treated with different

LoVo cells = test: Cell proliferation assay (CCK-8), LoVo cells; format: cell-based; conditions: 6 days
Procedure: as §1

[3] = 50 μM peptides, 24 h, immunoblot

For `CC[C@H](C)[C@@H]1NC(=O)[C@@](C)(NC(=O)[C@H](CCCNC(=N)N)NC(=O)[C@@H]2CCCN2C(=O)[C@H](Cc2c[nH]c3ccccc23)NC(=O)[C@H](CCCNC(=N)N)NC(=O)[C@H](CCCNC(=N)N)NC(C)=O)CCCC=CCCC[C@@](C)(C(=O)N[C@@H](Cc2c[nH]cn2)C(=O)N[C@H](C(=O)N[C@@H](CCCNC(=N)N)C(=O)N[C@@H](CCCNC(=N)N)C(=O)N[C@H](C(=O)N[C@@H](Cc2c[nH]c3ccccc23)C(=O)N[C@@H](CCCNC(=N)N)C(=O)NCCCCCC(=O)N[C@@H](C)C(=O)N[C@@H](CC(C)C)C(=O)N[C@@H](C)C(=O)N2CCC[C@H]2C(=O)N[C@@H](Cc2ccc(O)cc2)C(=O)N[C@H](C(=O)N2CCC[C@H]2C(N)=O)[C@@H](C)CC)C(C)C)C(C)C)NC(=O)[C@H](CC(=O)O)NC(=O)[C@H](CC(C)C)NC1=O` [xStAx-VHLL] (Ac-RRWPR[S5]ILD[S5]HVRRVWR[Ahx]ALAPYIP-NH2; staple 6-10; N-terminus and C-terminus assumed), the “β-catenin protein level, MSAB versus xStAx-VHLL” value (β-catenin [1]; 10 μM MSAB, 50 μM xStAx-VHLL (legend: 70 μM, Wnt3a CM), 24 h) was “decreased β-catenin protein to a comparable level”, the β-catenin ubiquitination (β-catenin [1]; 50 μM peptide 24 h, MG132 10 μM 12 h, IP and immunoblot) was “promoted β-catenin ubiquitination” and the “time post treatment at which β-catenin degradation started” value (β-catenin [1]; 70 μM peptide and Wnt3a CM, immunoblot time course) was 12 h. The “endogenous β-catenin protein level” value (β-catenin [1]; 70 μM peptide, 24 h, without Wnt3a, immunoblot) was “reduced the β-catenin level”, the “β-catenin protein level in Wnt3a-treated cells” value (β-catenin [1]; 70 μM peptide, Wnt3a CM, 24 h, immunoblot, lower than xStAx) was “significantly downregulated β-catenin protein level” and the “β-catenin level after wash-out of the drug” value (β-catenin [1]; MSAB 10 μM or xStAx-VHLL 70 μM 24 h, then fresh medium 24 or 48 h) was “durable degradation of β-catenin”. The “proliferation of HCT116 cells” value (HCT116 cells) was “significantly attenuated the proliferation”, the “APC^−/− organoid survival, MSAB versus xStAx-VHLL” value (APC^−/− organoids; 10 μM MSAB or 50 μM xStAx-VHLL, 4 days) was “strong inhibition” and the “growth of APC^−/− organoids” value (APC^−/− organoids; 50 μM peptide, 4 days) was “significantly impeded the growth”. The “cleaved caspase 3” value (APC^−/− organoids; [3]) was “increased”, the β-catenin protein level (APC^−/− organoids; [3]) was “greatly decreased” and the “expression of Wnt target genes Axin2, Cyclin D1 and Myc” value (APC^−/− organoids; qPCR) was “downregulated”. For the same compound, the “retention in the cell after wash-out” value (SW480 cells; 6 h, washed out with growth medium, examined after 24 h and 48 h) was “retained in the cell much longer”, the “membrane permeability / uptake into cells” value (SW480 cells; 6 h incubation) was “could efficiently enter into a cell” and the “active β-catenin protein level in small intestine” value (intestinal tumors; 30 mg/kg i.p. 7 times, immunoblot, compared with the vehicle group) was “also decreased”. For the same compound, the intestinal tumor number (intestinal tumors; 11 weeks-old mice, 30 mg/kg i.p. every other day for 14 days (7 times), vs day 0 or DMSO) was “dramatically reduced tumor number”, the “dose dependence of β-catenin degradation” value (β-catenin [2]; CRC cells (HCT116, LoVo, SW480), indicated concentrations, 24 h) was “dose-dependent manner” and the “β-catenin level after wash-out of the peptide” value (β-catenin [2]; HCT116, 50 μM peptide 24 h, then fresh medium 24 or 48 h) was “remained low after 24 h”. The “β-catenin degradation in colorectal cancer cells” value (β-catenin [2]; HCT116, SW480 or LoVo, 50 μM peptides, 24 h, immunoblot) was “promotes the degradation of β-catenin”, the “β-catenin protein level, MSAB versus xStAx-VHLL” value (β-catenin [2]; HCT116 and SW480, 10 μM MSAB, 24 h) was “decreased β-catenin protein to a comparable level” and the “β-catenin protein level, MSAB versus xStAx-VHLL” value (β-catenin [2]; LoVo, 10 μM MSAB, 24 h) was “able to reduce the β-catenin protein level”. For the same compound, the “proliferation of LoVo cells” value (LoVo cells; 50 μM peptides, cell number counted each day) was “significantly attenuated the proliferation” and the “proliferation of LoVo cells, MSAB versus xStAx-VHLL” value (LoVo cells; 1 × 10^4 cells, 10 μM MSAB or 50 μM xStAx-VHLL) was “hampered by xStAx-VHLL”.
